Legend:
[1] = test system: LC-2/ad (CCDCl6-RET) cells; experiment: Cell proliferation assay (MTS), LC-2/ad cells; assay type: cell-based; conditions: Homo sapiens, LC-2-ad, 72 h, LC-2/ad cells (CCDCl6-RET), 72 h incubation, MTS readout
Method: (§1) MTS testing kit was purchased from Promega. The RPMI-1640, F12, F12K, Fetal bovine serum and Penicillin-Streptomycin were purchased from BI. Glutamine and Dimethyl sulfoxide (DMSO) were purchased from Sigma. TT cells were cultured in F12K supplemented with 10% FBS and LC-2/ad cells were cultured in HamF12: RPMI1640 (1:1) supplemented with 10% FBS and 2 mM Glutamine.
(§2) To investigate whether a compound is able to inhibit the activity of RET fusion and/or mutation in cells, a mechanism-based assay using TT (RET C634W) and LC-2/ad (CCDCl6-RET) cell lines was developed. In this assay, the inhibition of RET fusion and/or mutation was reflected by the inhibition of cell proliferation of TT and LC-2/ad cells. Cells were plated into 96-well plates at the optimized cell density (TT: 5000 cells/well; LC-2/ad: 5000 cells/well). Plates were incubated at 37° C., with 5% CO2 for 24 h. Compounds were serially diluted and added to the plates with the final concentrations as 10000, 3333.3, 1111.1, […], 123.5, 41.2, 13.7, 4.6 and 1.5 nM. Plates were incubated at 37° C., with 5% CO2 for 72 h. An aliquot of 20 μL MTS/100 μL medium mixture solution were added to each well and the plates were incubated for exactly 2 h. The reaction was stopped by adding 25 μL 10% SDS to each well. The absorbance was measured by a microplate reader at 490 nm and 650 nm (reference wavelength). IC50 was calculated using GraphPad Prism 5.0.

[2] = test system: TT (RET C634W) cells; experiment: Cell proliferation assay (MTS), TT cells; assay type: cell-based; conditions: Homo sapiens, TT, 72 h, 72 h incubation, MTS readout
Method: as §1, §2

Compound | IC50 [1] [nM] | IC50 [2] [nM]
Cc1ccc(OC2CCN(c3ccc(-c4cc(-c5cnn(C)c5)cc5ncc(C#N)n45)cn3)CC2)nn1 [Example 20, 7-(1-methyl-1H-pyrazol-4-yl)-5-(6-(4-((6-methylpyridazin-3-yl)oxy)piper-idin-1-yl)pyridin-3-yl)imidazo[1,2-a]pyridine-3-carbonitrile] | 17 | 6
CO[C@@H](C(=O)N1CCN(c2ccc(-c3cc(-c4cnn(C)c4)cc4ncc(C#N)n34)cn2)CC1)c1ccccc1 [Example 14, (R)-5-(6-(4-(2-methoxy-2-phenylace-tyl)piperazin-1-yl)pyridin-3-yl)-7-(1-methyl-1H-pyrazol-4-yl)imidazo[1,2-a]pyridine-3-carbonitrile] | 13 | 6
CC(C)CC(=O)N1CCN(c2ccc(-c3cc(-c4cnn(C)c4)cc4ncc(C#N)n34)cn2)CC1 [Example 48, 7-(1-methyl-1H-pyrazol-4-yl)-5-(6-(4-(3-methylbutanoyl)piperazin-1-yl)pyridin-3-yl)imidazo[1,2-a]pyridine-3-carbonitrile] | 50 | 77
Cn1cc(-c2cc(-c3ccc(N4CCN(Cc5ccccc5)CC4)nc3)n3c(C#N)cnc3c2)cn1 [Example 33, 5-(6-(4-benzylpiperazin-1-yl)pyridin-3-yl)-7-(1-methyl-1H-pyrazol-4-yl) imidazo[1,2-a]pyridine-3-carbonitrile] | 17 | 34
Cc1cccc(CN2CCN(c3ccc(-c4cc(-c5cnn(C)c5)cc5ncc(C#N)n45)cn3)CC2)n1 [Example 5, 7-(1-methyl-1H-pyrazol-4-yl)-5-(6-(4-((6-methylpyridin-2-yl)methyl)pi-perazin-1-yl)pyridin-3-yl)imidazo[1,2-a]pyridine-3-carbonitrile] | 80 | 71
COc1ccc(OC2CCN(c3ccc(-c4cc(OCC(C)(C)O)cc5ncc(C#N)n45)cn3)CC2)cn1 [Example 60, 7-(2-Hydroxy-2-methylpropoxy)-5-(6-(4-((6-methoxypyridin-3-yl)oxy)piperidin-1-yl)pyridin-3-yl)imidazo[1,2-a]pyridine-3-carbonitrile] | 9 | 3
COc1ccc(OC2CCN(c3ccc(-c4cc(OCC5(O)CC5)cc5ncc(C#N)n45)cn3)CC2)cn1 [Example 68, 7-((1-hydroxycyclopropyl)methoxy)-5-(6-(4-((6-methoxypyridin-3-yl)oxy)piperidin-1-yl)pyridin-3-yl)imidazo[1,2-a]pyridine-3-carbonitrile] | 10 | 5
Cn1cc(-c2cc(-c3ccc(N4CCN(C(=O)Cc5ccccn5)CC4)nc3)n3c(C#N)cnc3c2)cn1 [Example 46, 7-(1-methyl-1H-pyrazol-4-yl)-5-(6-(4-(2-(pyridin-2-yl)acetyl)piperazin-1-yl)pyridin-3-yl)imidazo[1,2-a]pyri-dine-3-carbonitrile] | 36 | 37
COc1ccc(OC2CCN(c3ccc(-c4cc(OCC(C)(C)O)cc5ncc(C#N)n45)cn3)CC2)nn1 [Example 65, 7-(2-hydroxy-2-methylpropoxy)-5-(6-(4-((6-methoxypyridazin-3-yl)oxy)piperidin-1-yl)pyridin-3-yl)imidazo[1,2-a]pyridine-3-carbonitrile] | 34 | 38
Cn1cc(-c2cc(-c3ccc(N4CCC(Oc5ccccn5)CC4)nc3)n3c(C#N)cnc3c2)cn1 [Example 18, 7-(1-methyl-1H-pyrazol-4-yl)-5-(6-(4-(pyridin-2-yloxy)piperidin-1-yl)pyr-idin-3-yl)imidazo[1,2-a]pyridine-3-carbonitrile] | 2 | 1
CC(C)OCCN1CCN(c2ccc(-c3cc(-c4cnn(C)c4)cc4ncc(C#N)n34)cn2)CC1 [Example 51, 5-(6-(4-(2-isopropoxyethyl)piperazin-1-yl)pyridin-3-yl)-7-(1-methyl-1H-pyrazol-4-yl)imidazo[1,2-a]pyridine-3-carbonitrile] | 40 | 44

From patent publication US20220041588A1, “SUBSTITUTED IMIDAZO[1,2-A]PYRIDINE AND [1,2,4]TRIAZOLO[1,5-A]PYRIDINE COMPOUNDS AS RET KINASE INHIBITORS” (FOCHON PHARMACEUTICALS, LTD., priority 2018, published 2022)
